The source of these data is ChEMBL document CHEMBL1201862, “PubChem BioAssay data set” (2004).

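Briefly, cells in 96-well plates were exposed to five compound concentrations for 48 h, and endpoints were estimated by linear interpolation. The concentration for 50% growth inhibition is given as GI50.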 The source made the active and inactive calls. No stated cut-off is given here; in the data, active = GI50 up to about 1.1 µM and inactive = higher. A value given as a limit tells only on which side of the number the result lay.

Among the test systems are RXF 393; OVCAR-4; TK-10; HOP-62; SNB-75; SK-MEL-2; U-251; SK-MEL-5; NCI-H23; OVCAR-3; SW-620; SR; NCI-H522; Malme-3M; NCI/ADR-RES; CCRF-CEM; HCT-116; HCT-15; HOP-92.
Common to all, as to test: NCI tumour cell line growth inhibition, 48 h

In the case of `O=C(O)CCC(=O)c1ccc2sc3ccccc3c2c1`, the GI50 is > 100 µM (inactive) in the experiment with RXF 393; > 100 µM (inactive) in the experiment on OVCAR-4; 91.6 µM (inactive) with TK-10; > 100 µM (inactive) in the experiment with HOP-62; > 100 µM (inactive) in the experiment on SNB-75; > 100 µM (inactive) in the experiment on SK-MEL-2. Moreover, the GI50 in the experiment with U-251, in the experiment on SK-MEL-5, with NCI-H23, in the experiment with OVCAR-3, in the experiment with SW-620 and with SR was > 100 µM (inactive) each time. The GI50 is > 100 µM (inactive) in the experiment on NCI-H522; > 100 µM (inactive) with Malme-3M; > 100 µM (inactive) in the experiment with NCI/ADR-RES; 0.225 µM (active) in the experiment with CCRF-CEM; > 100 µM (inactive) in the experiment on HCT-116; over 100 µM in the experiment with HCT-15.
With `O=c1[nH]c2cccc([N+](=O)[O-])c2c(=O)n1-c1ccc(Cl)cc1`, the GI50 in the experiment on RXF 393 was 17.1 µM (inactive); in the experiment on OVCAR-4, 5.07 µM (inactive); in the experiment with HOP-92, 18.5 µM (inactive); with TK-10, 14.9 µM (inactive); with HOP-62, 18.6 µM (inactive); in the experiment on SK-MEL-2, 9.86 µM (inactive). Also, the GI50 in the experiment on U-251 is 16.4 µM (inactive); in the experiment with SK-MEL-5, 9.71 µM (inactive); in the experiment on NCI-H23, 20.3 µM (inactive); in the experiment on OVCAR-3, 10.8 µM (inactive); with SW-620 it was 10.4 µM (inactive); in the experiment on SR, 15 µM (inactive). The GI50 is 12.8 µM (inactive) in the experiment with Malme-3M; 10.4 µM (inactive) with NCI/ADR-RES; 17.4 µM (inactive) with CCRF-CEM; 17.9 µM (inactive) in the experiment on HCT-116; 12.1 µM in the experiment with HCT-15.
As to `C(=C/CCCN1O[C@@H](CCCCCCCCc2cccnc2)[C@H]2CCC[C@H]21)/CCCCCCCCCc1cccnc1`, the GI50 in the experiment on RXF 393 was 17.1 µM (inactive); with OVCAR-4, 32.4 µM (inactive); with HOP-92, 13.2 µM (inactive); in the experiment on TK-10 it was 18.4 µM (inactive); with HOP-62, 20.8 µM (inactive); with SNB-75, 27.1 µM (inactive). In addition, the GI50 in the experiment with SK-MEL-2 was 22.4 µM (inactive); in the experiment on U-251 it was 15.7 µM (inactive); with SK-MEL-5, 17.5 µM (inactive); with NCI-H23, 16.6 µM (inactive); in the experiment on OVCAR-3 it was 17.1 µM (inactive); in the experiment with SW-620 it was 31.3 µM (inactive). Further, the GI50 is 17.2 µM (inactive) in the experiment on SR; 15.4 µM (inactive) in the experiment with Malme-3M; 28.1 µM (inactive) in the experiment on NCI/ADR-RES; 15.7 µM (inactive) with CCRF-CEM; 16 µM (inactive) with HCT-116; 24.8 µM with HCT-15.
For `O=C1Nc2ccccc2NC1C1OC(c2ccccc2)=CC1=O` (centres undefined), the GI50 in the experiment with RXF 393, in the experiment on OVCAR-4, with HOP-92, in the experiment with TK-10, in the experiment on SNB-75 and in the experiment on SK-MEL-2 was > 100 µM (inactive) in each case. In addition, the GI50 with U-251, with SK-MEL-5, with NCI-H23, in the experiment with OVCAR-3, in the experiment with SW-620 and in the experiment on SR was > 100 µM (inactive) in each case. Besides, the GI50 in the experiment on Malme-3M is > 100 µM (inactive); in the experiment with NCI/ADR-RES, 82.2 µM (inactive); with CCRF-CEM, > 100 µM (inactive); with HCT-116, > 100 µM (inactive); in the experiment with HCT-15 it was over 100 µM.
As for `COC(=O)[C@]12CSC[C@H]1C[C@H](c1ccc(N(C)C)cc1)N2`, the GI50 in the experiment with RXF 393, in the experiment with OVCAR-4, in the experiment with HOP-92, in the experiment with TK-10, in the experiment with HOP-62 and in the experiment with SNB-75 was > 100 µM (inactive) throughout. Besides, the GI50 in the experiment with SK-MEL-2, in the experiment on U-251, in the experiment on SK-MEL-5, in the experiment on NCI-H23, in the experiment on OVCAR-3 and with SW-620 was > 100 µM (inactive) each time. In addition, the GI50 in the experiment with SR was > 100 µM (inactive); in the experiment on Malme-3M, > 100 µM (inactive); with NCI/ADR-RES, > 100 µM (inactive); with HCT-116, > 100 µM (inactive); in the experiment on HCT-15, over 100 µM.
Regarding `c1cc2sc1CSCCSCCSC2`, the GI50 in the experiment with OVCAR-4, with HOP-92, with TK-10, in the experiment with HOP-62, in the experiment on SNB-75 and with U-251 was > 100 µM (inactive) throughout. Further, the GI50 in the experiment on SK-MEL-5, with NCI-H23, in the experiment with OVCAR-3, in the experiment with SW-620, in the experiment with SR and in the experiment on NCI-H522 was > 100 µM (inactive) throughout. In addition, the GI50 with NCI/ADR-RES is > 100 µM (inactive); with CCRF-CEM it was > 100 µM (inactive); in the experiment on HCT-116 it was > 100 µM (inactive); with HCT-15 it was over 100 µM.
Turning to `CCCC(=O)OC1CC(n2cc(F)c(=O)[nH]c2=O)OC1CO` (centres undefined), the GI50 was > 5.79 µM (inactive) with RXF 393; > 10 µM (inactive) with OVCAR-4; > 2.67 µM (inactive) with TK-10; 0.0583 µM (active) in the experiment on HOP-62; 1.53 µM (inactive) in the experiment with SNB-75; > 10 µM (inactive) with SK-MEL-2. The GI50 in the experiment with U-251 is > 5.24 µM (inactive); in the experiment with SK-MEL-5 it was 0.329 µM (active); in the experiment with NCI-H23, 0.0682 µM (active); in the experiment on OVCAR-3 it was 3.69 µM (inactive); in the experiment on SW-620 it was > 10 µM (inactive); with SR, 0.0493 µM (active). Besides, the GI50 is 6.34 µM (inactive) with NCI-H522; > 8.79 µM (inactive) in the experiment with Malme-3M; > 2.55 µM (inactive) with NCI/ADR-RES; 0.0355 µM (active) in the experiment with CCRF-CEM; 0.731 µM (active) with HCT-116; over 7.64 µM with HCT-15.
Turning to `COc1cccc(C(C#N)NNC(=O)c2c(Cl)c(Cl)c(Cl)c(Cl)c2-c2nc3cc(C(=O)c4ccccc4)ccc3[nH]2)c1O` (centres undefined), the GI50 is 2.17 µM (inactive) in the experiment with RXF 393; 3.09 µM (inactive) with OVCAR-4; 9.2 µM (inactive) in the experiment on HOP-92; 7.71 µM (inactive) in the experiment on TK-10; 2.03 µM (inactive) with HOP-62; 2 µM (inactive) with SNB-75. Further, the GI50 with SK-MEL-2 is 4.05 µM (inactive); in the experiment on U-251, 4.44 µM (inactive); in the experiment with SK-MEL-5, 2.71 µM (inactive); with NCI-H23 it was 5.74 µM (inactive); in the experiment on OVCAR-3, 2.2 µM (inactive); in the experiment on SW-620 it was 6.01 µM (inactive). Besides, the GI50 with SR is 2.91 µM (inactive); in the experiment on NCI/ADR-RES, 2.54 µM (inactive); with CCRF-CEM it was 3.2 µM (inactive); in the experiment with HCT-116, 4 µM (inactive); in the experiment on HCT-15, 4.06 µM.
As for `Fc1cccc(C2SCc3nc4cc5ccccc5cc4n32)c1` (centres undefined), the GI50 is > 100 µM (inactive) in the experiment on RXF 393; 90.8 µM (inactive) in the experiment with OVCAR-4; 21 µM (inactive) in the experiment with HOP-92; > 100 µM (inactive) in the experiment with TK-10; 41.5 µM (inactive) in the experiment with HOP-62; 93.1 µM (inactive) in the experiment on SNB-75. Besides, the GI50 in the experiment with SK-MEL-2, with U-251, in the experiment with NCI-H23, in the experiment on OVCAR-3, in the experiment on SW-620 and with SR was > 100 µM (inactive) throughout. In addition, the GI50 was > 100 µM (inactive) in the experiment with Malme-3M; > 100 µM (inactive) in the experiment on NCI/ADR-RES; > 100 µM (inactive) in the experiment on CCRF-CEM; > 100 µM (inactive) in the experiment with HCT-116; over 100 µM with HCT-15.
In the case of `Cc1c(C)c2ccc(O)cc2[nH]c1=O`, the GI50 was > 100 µM (inactive) in the experiment on RXF 393; > 100 µM (inactive) in the experiment on OVCAR-4; > 100 µM (inactive) with HOP-92; > 100 µM (inactive) in the experiment with HOP-62; 98.9 µM (inactive) in the experiment on SNB-75; > 100 µM (inactive) in the experiment on SK-MEL-2. Moreover, the GI50 with U-251, in the experiment on SK-MEL-5, in the experiment with NCI-H23, in the experiment on OVCAR-3, in the experiment on SW-620 and in the experiment on SR was > 100 µM (inactive) each time. Also, the GI50 in the experiment with NCI/ADR-RES is > 100 µM (inactive); with CCRF-CEM, > 100 µM (inactive); in the experiment with HCT-116 it was > 100 µM (inactive); with HCT-15, over 100 µM.
`CC1(C)C(O)C[C@]23CCC[C@](C)(C[C@@H](O)C12)C3` (some centres undefined): the GI50 in the experiment with OVCAR-4, in the experiment on HOP-92, in the experiment with TK-10, in the experiment on HOP-62, in the experiment with SNB-75 and in the experiment on SK-MEL-2 was > 100 µM (inactive) in each case. The GI50 with U-251, in the experiment on SK-MEL-5, in the experiment on NCI-H23, in the experiment with OVCAR-3, in the experiment on SW-620 and in the experiment with SR was > 100 µM (inactive) throughout. Besides, the GI50 with NCI-H522 is > 100 µM (inactive); in the experiment with Malme-3M it was > 100 µM (inactive); with NCI/ADR-RES it was > 100 µM (inactive); in the experiment with CCRF-CEM, > 100 µM (inactive); with HCT-15 it was over 100 µM.
Turning to `C1=CC(=[N+]2N=C(c3ccccc3)CC2c2ccccc2)C=CC1=C1SC(c2ccccc2)(c2ccccc2)c2ccccc21.[O-][Cl+3]([O-])([O-])[O-]` (centres undefined), the GI50 in the experiment with RXF 393 was > 100 µM (inactive); in the experiment with HOP-92 it was 82 µM (inactive); with TK-10, > 100 µM (inactive); with HOP-62 it was > 100 µM (inactive); in the experiment with SK-MEL-2 it was > 100 µM (inactive); with U-251, > 100 µM (inactive). Moreover, the GI50 with SK-MEL-5, in the experiment with NCI-H23, with OVCAR-3, with SW-620, with SR and with Malme-3M was > 100 µM (inactive) in each case. For the same compound, the GI50 with NCI/ADR-RES is > 100 µM (inactive); in the experiment with CCRF-CEM it was > 100 µM (inactive); in the experiment on HCT-116, 93.5 µM (inactive); in the experiment on HCT-15, over 100 µM.
